# Residues, ends and D or L forms follow the SMILES beside them. *: point of attachment. FITC = O=C1OC2(c3ccc(O)cc3Oc3cc(O)ccc32)c2ccc(NC(=S)*)cc21
# Legend:
# [1] = Drug distribution in Escherichia coli 25922 assessed as green fluorescence signal covered all the bacterial cell at 1 time MIC concentration incubated for 30 mins in absence of light by 3D-SIM super resolution microscopy; assay type: ADME; conditions: 0.5 h
# [2] = Drug distribution in Escherichia coli 25922 assessed as red fluorescence signal at 1 time MIC concentration incubated for 30 mins in absence of light by Propidium iodide staining based assay; assay type: ADME; conditions: 0.5 h
# [3] = Drug distribution in Staphylococcus aureus 29213 assessed as green fluorescence signal covered all the bacterial cell at 1 time MIC concentration incubated for 30 mins in absence of light by 3D-SIM super resolution microscopy; assay type: ADME; conditions: 0.5 h
# [4] = Drug distribution in Staphylococcus aureus 29213 assessed as red fluorescence signal at 1 time MIC concentration incubated for 30 mins in absence of light by Propidium iodide staining based assay; assay type: ADME; conditions: 0.5 h
# Escherichia coli [5] = test: Antimicrobial activity against Escherichia coli 25922 assessed as absence bacterial growth measured after 18 to 24 hrs incubation by NCCLS method; assay type: functional; conditions: time 18-24 hrs
# Escherichia coli [6] = test: Antimicrobial activity against Escherichia coli K88 assessed as absence bacterial growth measured after 18 to 24 hrs incubation by NCCLS method; assay type: functional; conditions: time 18-24 hrs
# Salmonella typhimurium [7] = test: Antimicrobial activity against Salmonella typhimurium 14028 assessed as absence bacterial growth measured after 18 to 24 hrs incubation by NCCLS method; assay type: functional, Salmonella enterica subsp. enterica serovar Typhimurium; conditions: Salmonella enterica, time 18-24 hrs
# [8] = Antimicrobial activity against Salmonella pullorum C7913 assessed as absence bacterial growth measured after 18 to 24 hrs incubation by NCCLS method; assay type: functional, Salmonella enterica subsp. enterica serovar Pullorum; conditions: Salmonella enterica, time 18-24 hrs
# Pseudomonas aeruginosa [9] = test: Antimicrobial activity against Pseudomonas aeruginosa 27853 assessed as absence bacterial growth measured after 18 to 24 hrs incubation by NCCLS method; assay type: functional; conditions: time 18-24 hrs
# Acinetobacter baumannii [10] = test: Antimicrobial activity against Acinetobacter baumannii 1.6769 assessed as absence bacterial growth measured after 18 to 24 hrs incubation by NCCLS method; assay type: functional; conditions: time 18-24 hrs
# Enterococcus faecalis [11] = test: Antimicrobial activity against Enterococcus faecalis 29212 assessed as absence bacterial growth measured after 18 to 24 hrs incubation by NCCLS method; assay type: functional; conditions: time 18-24 hrs
# Listeria monocytogenes [12] = test: Antimicrobial activity against Listeria monocytogenes 1.10753 assessed as absence bacterial growth measured after 18 to 24 hrs incubation by NCCLS method; assay type: functional; conditions: time 18-24 hrs
# Bacillus cereus [13] = test: Antimicrobial activity against Bacillus cereus 1.932 assessed as absence bacterial growth measured after 18 to 24 hrs incubation by NCCLS method; assay type: functional; conditions: time 18-24 hrs
# Staphylococcus aureus [14] = test: Antimicrobial activity against Staphylococcus aureus 29213 assessed as absence bacterial growth measured after 18 to 24 hrs incubation by NCCLS method; assay type: functional; conditions: time 18-24 hrs
# Staphylococcus aureus [15] = test: Antimicrobial activity against Methicillin-resistant Staphylococcus aureus 43300 assessed as absence bacterial growth measured after 18 to 24 hrs incubation by NCCLS method; assay type: functional; conditions: time 18-24 hrs
# [16] = test system: Staphylococcus epidermidis; test: Antimicrobial activity against Staphylococcus epidermidis 12228 assessed as absence bacterial growth measured after 18 to 24 hrs incubation by NCCLS method; assay type: functional; conditions: time 18-24 hrs
# Staphylococcus aureus [17] = test: Antimicrobial activity against Staphylococcus aureus 29213 assessed as absence bacterial growth measured after 18 to 24 hrs incubation by NCCLS m; assay type: functional; conditions: time 18-24 hrs
# Escherichia coli [18] = test: Antimicrobial activity against Escherichia coli 25922 assessed as bacterial killing measured after 16 hrs incubation; assay type: functional
# Escherichia coli [19] = test: Antimicrobial activity against Escherichia coli K88 assessed as bacterial killing measured after 16 hrs incubation; assay type: functional
# Salmonella typhimurium [20] = test: Antimicrobial activity against Salmonella typhimurium 14028 assessed as bacterial killing measured after 16 hrs incubation; assay type: functional, Salmonella enterica subsp. enterica serovar Typhimurium; conditions: Salmonella enterica
# Salmonella typhimurium [21] = test: Antimicrobial activity against Salmonella typhimurium C7731 assessed as bacterial killing measured after 16 hrs incubation; assay type: functional, Salmonella enterica subsp. enterica serovar Typhimurium; conditions: Salmonella enterica
# [22] = Antimicrobial activity against Salmonella pullorum C7913 assessed as bacterial killing measured after 16 hrs incubation; assay type: functional, Salmonella enterica subsp. enterica serovar Pullorum; conditions: Salmonella enterica
# Pseudomonas aeruginosa [23] = test: Antimicrobial activity against Pseudomonas aeruginosa 27853 assessed as bacterial killing measured after 16 hrs incubation; assay type: functional
# Acinetobacter baumannii [24] = test: Antimicrobial activity against Acinetobacter baumannii 1.6769 assessed as bacterial killing measured after 16 hrs incubation; assay type: functional
# Enterococcus faecalis [25] = test: Antimicrobial activity against Enterococcus faecalis 29212 assessed as bacterial killing measured after 16 hrs incubation; assay type: functional
# Listeria monocytogenes [26] = test: Antimicrobial activity against Listeria monocytogenes 1.10753 assessed as bacterial killing measured after 16 hrs incubation; assay type: functional
# Bacillus cereus [27] = test: Antimicrobial activity against Bacillus cereus 1.932 assessed as bacterial killing measured after 16 hrs incubation; assay type: functional
# Staphylococcus aureus [28] = test: Antimicrobial activity against Staphylococcus aureus 29213 assessed as bacterial killing measured after 16 hrs incubation; assay type: functional
# Staphylococcus aureus [29] = test: Antimicrobial activity against Methicillin-resistant Staphylococcus aureus 43300 assessed as bacterial killing measured after 16 hrs incubation; assay type: functional
# [30] = test system: Staphylococcus epidermidis; test: Antimicrobial activity against Staphylococcus epidermidis 12228 assessed as bacterial killing measured after 16 hrs incubation; assay type: functional
# Staphylococcus aureus [31] = test: Antimicrobial activity against Staphylococcus aureus 25923 assessed as bacterial killing measured after 16 hrs incubation; assay type: functional
# Salmonella typhimurium [32] = test: Antimicrobial activity against Salmonella typhimurium C7731 assessed as absence bacterial growth measured after 18 to 24 hrs incubation by NCCLS method; assay type: functional, Salmonella enterica subsp. enterica serovar Typhimurium; conditions: Salmonella enterica, time 18-24 hrs
# Escherichia coli [33] = test: Antimicrobial activity against Escherichia coli 25922 assessed as absence bacterial growth measured after 18 to 24 hrs incubation in presence of 50% serum by NCCLS method; assay type: functional; conditions: time 18-24 hrs
# Escherichia coli [34] = test: Antimicrobial activity against Escherichia coli 25922 assessed as absence bacterial growth measured after 18 to 24 hrs incubation in presence of 25% serum by NCCLS method; assay type: functional; conditions: time 18-24 hrs
# Escherichia coli [35] = test: Antimicrobial activity against Escherichia coli 25922 assessed as absence bacterial growth measured after 18 to 24 hrs incubation in presence of 12.5% serum by NCCLS method; assay type: functional; conditions: time 18-24 hrs
# [36] = Hemolytic activity in human RBC at effective concentration at 128 uM measured after 1 hr by microplate reader relative to control; assay type: toxicity, cell-based, Erythrocyte; conditions: human red blood cells (erythrocytes), read-out: Activity
# Escherichia coli [37] = test: Antimicrobial activity against Escherichia coli 25922 assessed as absence bacterial growth measured after 18 to 24 hrs incubation in presence of NaCl by NCCLS method; assay type: functional; conditions: time 18-24 hrs
# Escherichia coli [38] = test: Antimicrobial activity against Escherichia coli 25922 assessed as absence bacterial growth measured after 18 to 24 hrs incubation in presence of KCl by NCCLS method; assay type: functional; conditions: time 18-24 hrs
# Escherichia coli [39] = test: Antimicrobial activity against Escherichia coli 25922 assessed as absence bacterial growth measured after 18 to 24 hrs incubation in presence of NH4Cl by NCCLS method; assay type: functional; conditions: time 18-24 hrs
# Escherichia coli [40] = test: Antimicrobial activity against Escherichia coli 25922 assessed as absence bacterial growth measured after 18 to 24 hrs incubation in presence of MgCl2 by NCCLS method; assay type: functional; conditions: time 18-24 hrs
# Escherichia coli [41] = test: Antimicrobial activity against Escherichia coli 25922 assessed as absence bacterial growth measured after 18 to 24 hrs incubation in presence of ZnCl2 by NCCLS method; assay type: functional; conditions: time 18-24 hrs
# Escherichia coli [42] = test: Antimicrobial activity against Escherichia coli 25922 assessed as absence bacterial growth measured after 18 to 24 hrs incubation in presence of FeCl3 by NCCLS method; assay type: functional; conditions: time 18-24 hrs
# [43] = Cytotoxicity against mouse RAW264.7 cells assessed as cell survival rate at 32 to 64 uM measured after 8 hrs by MTT assay relative to control; assay type: toxicity, cell-based; conditions: dose 32-64 µM, read-out: Activity
# [44] = Cytotoxicity against human HEK-293T cells assessed as cell survival rate at 64 uM measured after 8 hrs by MTT assay relative to control; assay type: toxicity, cell-based; conditions: read-out: Activity
# [45] = Cytotoxicity against porcine IPEC-J2 cells assessed as cell survival rate at 64 uM measured after 8 hrs by MTT assay relative to control; assay type: toxicity, cell-based, Sus scrofa; conditions: pig, read-out: Activity
# Erythrocyte = test: Hemolytic activity in human RBC at effective concentration measured after 1 hr by microplate reader analysis; assay type: toxicity, cell-based
# [46] = Cytotoxicity against mouse RAW264.7 cells assessed as cell survival rate measured after 8 hrs by MTT assay; assay type: toxicity, cell-based
# [47] = Cytotoxicity against human HEK-293T cells assessed as cell survival rate measured after 8 hrs by MTT assay; assay type: toxicity, cell-based
# [48] = Cytotoxicity against porcine IPEC-J2 cells assessed as cell survival rate measured after 8 hrs by MTT assay; assay type: toxicity, cell-based, Sus scrofa; conditions: pig
molecule,measurement,setting,value
CC(C)C[C@H](NC(=O)[C@H](CCCCN)NC(=O)CNC(=O)CNC(=O)[C@H](CCCCN)NC(=O)[C@H](CC(C)C)NC(=O)[C@H](Cc1c[nH]c2ccccc12)NC(=O)[C@H](CC(C)C)NC(=O)[C@H](CCCCN)NC(=O)CNC(=O)[C@H](C)NC(=O)[C@H](CCCCN)NC(=O)[C@H](CC(C)C)NC(=O)[C@H](Cc1c[nH]c2ccccc12)NC(=O)[C@H](CC(C)C)NC(=O)[C@H](CCCCN)NC(=O)CNC(=S)Nc1ccc2c(c1)C(=O)OC21c2ccc(O)cc2Oc2cc(O)ccc21)C(=O)N[C@@H](Cc1c[nH]c2ccccc12)C(=O)N[C@@H](CC(C)C)C(=O)N[C@@H](CCCCN)C(=O)NCC(N)=O ({FITC}-GKLWLKAGKLWLKGGKLWLKG-NH2),Drug uptake,[1],Active
same,Drug uptake,[2],Active
same,Drug uptake,[3],Active
same,Drug uptake,[4],Active
H-GKLWLKGGKLWLKGAKLWLKG-NH2,MIC,Escherichia coli [5],2 µM
same,MIC,Escherichia coli [6],1 µM
same,MIC,Salmonella typhimurium [7],4 µM
same,MIC,[8],1 µM
same,MIC,Pseudomonas aeruginosa [9],4 µM
same,MIC,Acinetobacter baumannii [10],2 µM
same,MIC,Enterococcus faecalis [11],4 µM
same,MIC,Listeria monocytogenes [12],> 32 µM
same,MIC,Bacillus cereus [13],4 µM
same,MIC,Staphylococcus aureus [14],4 µM
same,MIC,Staphylococcus aureus [15],2 µM
same,MIC,[16],4 µM
same,MIC,Staphylococcus aureus [17],4 µM
same,MBC,Escherichia coli [18],2 µM
same,MBC,Escherichia coli [19],1 µM
same,MBC,Salmonella typhimurium [20],4 µM
same,MBC,Salmonella typhimurium [21],8 µM
same,MBC,[22],2 µM
same,MBC,Pseudomonas aeruginosa [23],8 µM
same,MBC,Acinetobacter baumannii [24],2 µM
same,MBC,Enterococcus faecalis [25],4 µM
same,MBC,Listeria monocytogenes [26],> 32 µM
same,MBC,Bacillus cereus [27],4 µM
same,MBC,Staphylococcus aureus [28],4 µM
same,MBC,Staphylococcus aureus [29],4 µM
same,MBC,[30],4 µM
same,MBC,Staphylococcus aureus [31],4 µM
same,MIC,Salmonella typhimurium [32],4 µM
same,MIC,Escherichia coli [33],> 32 µM
same,MIC,Escherichia coli [34],> 32 µM
same,MIC,Escherichia coli [35],32 µM
same,"hemolysis at 1 h, 128 µM",[36],< 10%
same,MIC,Escherichia coli [37],16 µM
same,MIC,Escherichia coli [38],2 µM
same,MIC,Escherichia coli [39],2 µM
same,MIC,Escherichia coli [40],8 µM
same,MIC,Escherichia coli [41],2 µM
same,MIC,Escherichia coli [42],2 µM
same,"viability at 8 h, up to 64 µM",[43],60%
same,"viability at 8 h, 64 µM",[44],> 80%
same,"viability at 8 h, 64 µM",[45],> 80%
same,HC10,Erythrocyte,> 128 µM
same,IC50 at 8 h,[46],> 64 µM
same,IC50 at 8 h,[47],> 64 µM
same,IC50 at 8 h,[48],> 64 µM

# — ChEMBL document CHEMBL5518215, “Unlocking Antibacterial Potential: Key-Site-Based Regulation of Antibacterial Spectrum of Peptides” (J Med Chem, 2024)
